Where two headings read alike, the source gives them in different places. Ends that are not written are not given here. Peptide text beside a SMILES is read from it.
How the values were obtained:
[1] = test system: colistin-resistant E. coli NMA 1557 (ColREC 1557); assay type: cell-based, Escherichia coli; conditions: MH broth, 2 × 10^5 cells/mL, 16 h, 37 °C, OD600, >95% killing
Text: (§1) E. coli (KCTC 1682) was obtained from the Korean Collection for Type Cultures (KCTC, Jeongeup, Republic of Korea), and Acinetobacter baumannii (KCCM 40203) and Pseudomonas aeruginosa (KCCM 11328) from the Korea Culture Center of Microorganisms (KCCM, Seoul, Republic of Korea). Klebsiella pneumoniae (NCCP 16054), colistin-resistant E. coli NMA 1557 (ColREC 1557), NMS 12 (ColREC 12), and colistin-resistant A. baumannii NMS 1915 (ColRAB 1915), as well as colistin-resistant K. pneumoniae NMS 139 (ColRKP 139), were obtained from the National Institute of Health Multidrug Resistant Bacteria Specialized Pathogen Resources Bank (Osong, Republic of Korea).
(§2) The antibacterial abilities of the peptides (T. ni cecropin, cecropin A, polymyxin B, colistin, and melittin) were determined using the broth dilution method as previously reported. The peptides dissolved at 10 mg/mL in deionized water were serially diluted from 64 μM to 0.5 μM in 96-well plates using Mueller–Hinton (MH) broth, and bacteria cultured to exponential growth were added at 2 × 10^5 cells/mL. The group of bacteria that grew untreated in the broth was set as the positive control, and the uninoculated broth as the negative control. Dissolved peptides are colorless and equal to the OD value of the medium only. After 16 h incubation at 37 °C, the absorbance at 600 nm was measured using a SpectraMAX microplate reader (Molecular Devices, San Jose, CA, USA).

[2] = test system: colistin-resistant E. coli NMS 12 (ColREC 12); assay type: cell-based, Escherichia coli; conditions: MH broth, 2 × 10^5 cells/mL, 16 h, 37 °C, OD600, >95% killing
Text: as §1, §2

L-929 cells = assay: Cytotoxicity, WST-8; assay type: cell-based, mouse; conditions: 24 h; for viability / survival rate: up to 100 μM peptide
Experimental: (§3) Murine macrophage RAW 264.7 cells and mouse fibroblast L-929 cells were used for research and were purchased from the Korea Cell Line Bank (Seoul, Republic of Korea). Both cells were cultured in Dulbecco’s Modified Eagle’s Medium (DMEM; Welgene, Gyeongsan, Republic of Korea) supplemented with 10% fetal bovine serum and 1% antibiotics (penicillin/streptomycin) at 37 °C in the presence of 5% CO2. To measure the cytotoxicities of peptides against RAW 264.7 cells and L-929 cells, both cell lines were seeded at a density of 1 × 10^5 cells/well in a 96-well plate, to which each concentration of peptide solution (from 1.6 μM to 100 μM) was added, followed by incubation for 22 h. Subsequently, WST-8 (Biomax Co., Ltd., Guri, Republic of Korea) was added at 10% volume of the final solution, and the mixture was incubated for an additional 2 h. Absorbance was measured at 450 nm. Percentages were calculated based on untreated cells.

[3] = test system: sheep red blood cells (sRBCs); assay: Hemolysis; assay type: cell-based; conditions: 1 h, 37 °C
Experimental: Sheep red blood cells (sRBCs; KisanBio, Seoul, Republic of Korea) were added to three volumes of phosphate-buffered saline (PBS; 35 mM phosphate buffer containing 150 mM NaCl, pH 7.4) and centrifuged five times at 4 °C, 1000× g for 5 min, followed by a final suspension in PBS at 4% (w/v). Peptides serially diluted from 100 μM to 3.1 μM in PBS at 100 μL in a 96-well plate were prepared, and an equal volume of blood solution was added. After incubation at 37 °C for 1 h, the plates were centrifuged for 5 min at 4 °C, 1000× g. The absorbance of the supernatant was measured at 405 nm. The 100% hemolysis control was 0.1% Triton-X 100 added to the blood solution; the negative control was blood solution added to PBS.

[4] = test system: colistin-resistant K. pneumoniae NMS 139 (ColRKP 139); assay type: cell-based, Klebsiella pneumoniae; conditions: MH broth, 2 × 10^5 cells/mL, 16 h, 37 °C, OD600, >95% killing
Text: as §1, §2

[5] = test system: colistin-resistant A. baumannii NMS 1915 (ColRAB 1915); conditions: MH broth, 2 × 10^5 cells/mL, 16 h, 37 °C, OD600, >95% killing
Text: as §1
The peptides dissolved at 10 mg/mL in deionized water were serially diluted from 64 μM to 0.5 μM in 96-well plates using Mueller–Hinton (MH) broth, and bacteria cultured to exponential growth were added at 2 × 10^5 cells/mL. The group of bacteria that grew untreated in the broth was set as the positive control, and the uninoculated broth as the negative control. Dissolved peptides are colorless and equal to the OD value of the medium only. After 16 h incubation at 37 °C, the absorbance at 600 nm was measured using a SpectraMAX microplate reader (Molecular Devices, San Jose, CA, USA).

[6] = test system: Klebsiella pneumoniae (NCCP 16054); assay type: cell-based
Text: as §1, §2

[7] = test system: Acinetobacter baumannii (KCCM 40203); assay type: cell-based
Text: as §1, §2

E. coli (KCTC 1682) = assay type: cell-based, Escherichia coli
Text: as §1, §2

all bacterial strains = assay: Average MIC over all strains and relative selective index; assay type: cell-based; conditions: 8 strains; MIC above 64 μM taken as 128 μM
Experimental: as §2

RAW 264.7 cells = assay: Cytotoxicity, WST-8; assay type: cell-based, mouse; conditions: 100 μM peptide, 24 h
Experimental: as §3

[8] = test system: Pseudomonas aeruginosa (KCCM 11328); assay type: cell-based
Text: as §1, §2

ColREC 12 = assay: Biofilm inhibition assay, crystal violet; assay type: cell-based, Escherichia coli; conditions: ColREC 12, 2 μM peptide, 16 h
Experimental: (§4) To quantify the biofilm inhibitory activity of each peptide, ColREC 1557 and ColREC 12 were cultured in Luria–Bertani (LB) broth overnight and then sub-cultured in MH broth. Different concentrations of peptide (from 1 μM to 64 μM) were prepared in 96-well plates using MH broth (containing 0.2% glucose) and incubated with bacteria (2 × 10^5 cells/mL) at 37 °C for 16 h. After incubation, the culture medium was removed and methanol was added as a fixative for 15 min. The completely dried plates were stained for 2 h by adding 100 μL of staining solution (0.1% (w/v) crystal violet in 0.25% (v/v) acetic acid). The residual staining solution was gently rinsed off three times using distilled water. Subsequently, 90% ethanol was used to dissolve the dye, and absorbance was measured at 600 nm. The untreated bacterial group was used as a control to compare biofilm production rates.

[9] = Limulus amebocyte lysate (LAL) assay, LPS neutralization; assay type: biochemical; conditions: LPS 2 ng/mL, 10 min, 37 °C
Experimental: To investigate the LPS-neutralizing activity, LAL assays were performed according to the protocol provided in the LAL assay kit (ToxinSensor™ Chromogenic LAL Endotoxin Assay Kit; GenScript, Piscataway, NJ, USA). Briefly, peptides diluted from 50 μM to 1.6 μM in LAL reagent water were incubated with LPS (2 ng/mL) for 10 min at 37 °C. LAL enzyme was then added and incubated under the same conditions. Substrate was added to react, after which three kinds of stop solutions were added in order. Absorbance (545 nm) was measured and quantified using an endotoxin standard graph.

ColREC 1557 = assay type: cell-based, Escherichia coli; conditions: 16 h, crystal violet
Experimental: as §4

TLR4/MD-2 complex = molecular target: T1, TLR4/MD-2 complex (Homo sapiens, UniProt O00206+Q9Y6Y9); assay: Surface plasmon resonance (SPR); assay type: binding; conditions: Biacore T200, CM5 chip, PBS with 0.05% Tween 20, 25 °C, read-out: equilibrium constant (KD) for TLR4/MD2
T1 construct: purchased R&D Systems
T1 sequence (O00206 24-631 limits assumed): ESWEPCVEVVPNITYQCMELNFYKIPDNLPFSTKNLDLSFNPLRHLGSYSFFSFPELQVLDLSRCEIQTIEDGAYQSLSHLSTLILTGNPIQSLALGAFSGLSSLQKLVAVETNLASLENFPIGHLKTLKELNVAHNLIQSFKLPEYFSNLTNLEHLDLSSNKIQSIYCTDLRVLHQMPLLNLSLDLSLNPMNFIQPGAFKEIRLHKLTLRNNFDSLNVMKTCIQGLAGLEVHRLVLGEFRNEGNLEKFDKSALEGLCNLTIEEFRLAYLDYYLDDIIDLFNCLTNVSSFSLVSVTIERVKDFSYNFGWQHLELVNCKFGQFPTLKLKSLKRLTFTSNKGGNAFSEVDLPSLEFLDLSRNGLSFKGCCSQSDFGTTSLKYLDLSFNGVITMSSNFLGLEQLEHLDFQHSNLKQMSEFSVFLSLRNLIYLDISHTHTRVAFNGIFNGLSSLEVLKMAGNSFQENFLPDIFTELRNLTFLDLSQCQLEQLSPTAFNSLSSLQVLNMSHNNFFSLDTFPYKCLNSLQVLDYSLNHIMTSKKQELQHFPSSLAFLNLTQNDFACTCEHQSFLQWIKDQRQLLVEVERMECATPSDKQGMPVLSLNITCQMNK
T1 sequence (Q9Y6Y9 17-160 limits assumed): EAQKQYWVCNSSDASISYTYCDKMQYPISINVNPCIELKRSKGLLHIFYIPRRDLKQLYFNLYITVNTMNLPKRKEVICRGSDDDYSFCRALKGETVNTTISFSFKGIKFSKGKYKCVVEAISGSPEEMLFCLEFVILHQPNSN
Experimental: Binding affinity measurements of the peptide to TLR4/myeloid differentiation factor 2 (MD-2) protein (R&D Systems) were performed on a Biacore T200 instrument (GE Healthcare, Danderyd, Sweden). The receptor was covalently bound to the carboxymethylated sensor chip surface using standard NHS/EDC coupling procedures. The sensor chip (Sensor Chip CM5; Cytiva, MA, USA) was loaded with 30 μg/mL of protein in sodium acetate buffer (pH 4.0) to a resonance value of 2500. Measurements were performed at a flow rate of 30 μL/min with increasing concentrations of peptide dissolved in PBS containing 0.05% Tween 20 at 25 °C. Analysis was performed using Biacore T200 Evaluation Software 3.0 (GE Healthcare, Chicago, IL, USA).

[10] = K. pneumoniae, MH broth, 2 × 10^5 cells/mL, 16 h, 37 °C, OD600, >95% killing
[11] = A. baumannii, MH broth, 2 × 10^5 cells/mL, 16 h, 37 °C, OD600, >95% killing
[12] = E. coli, MH broth, 2 × 10^5 cells/mL, 16 h, 37 °C, OD600, >95% killing
[13] = P. aeruginosa, MH broth, 2 × 10^5 cells/mL, 16 h, 37 °C, OD600, >95% killing

Compound	Minimal Inhibitory Concentration [1]	Minimal Inhibitory Concentration [2]	Minimal Inhibitory Concentration [4]	Minimal Inhibitory Concentration [5]	Minimal Inhibitory Concentration [6, 10]	Minimal Inhibitory Concentration [7, 11]	GM (geometric mean, average MIC value of all bacterial strains) (all bacterial strains)	viability / survival rate (L-929 cells)	cell viability (RAW 264.7 cells)	Minimal Inhibitory Concentration (E. coli (KCTC 1682); [12])	inhibition of biofilm formation (ColREC 12)	Minimal Inhibitory Concentration [8, 13]	other results
CC[C@H](C)[C@H](NC(=O)CN)C(=O)NCC(=O)N[C@@H](C)C(=O)N[C@H](C(=O)N[C@@H](CC(C)C)C(=O)N[C@@H](CCCCN)C(=O)N[C@H](C(=O)N[C@@H](CC(C)C)C(=O)N[C@H](C(=O)N[C@H](C(=O)NCC(=O)N[C@@H](CC(C)C)C(=O)N1CCC[C@H]1C(=O)N[C@@H](C)C(=O)N[C@@H](CC(C)C)C(=O)N[C@H](C(=O)N[C@@H](CO)C(=O)N[C@@H](Cc1c[nH]c2ccccc12)C(=O)N[C@H](C(=O)N[C@@H](CCCCN)C(=O)N[C@@H](CCCNC(=N)N)C(=O)N[C@@H](CCCCN)C(=O)N[C@@H](CCCNC(=N)N)C(=O)N[C@@H](CCC(N)=O)C(=O)N[C@@H](CCC(N)=O)C(N)=O)[C@@H](C)CC)[C@@H](C)CC)[C@@H](C)O)[C@@H](C)O)C(C)C)C(C)C [melittin]	2 µM	2 µM	32 µM	2 µM	32 µM	4 µM							survival rate (L-929 cells; 1.6 μM peptide): below 5%; hemolytic activity ([3]; 3.1 μM peptide): 8.2%; hemolytic activity ([3]; 12.5 μM peptide): 84.3%
CC[C@H](C)CCCCC(=O)N[C@@H](CCN)C(=O)N[C@H](C(=O)N[C@@H](CCN)C(=O)N[C@H]1CCNC(=O)[C@H]([C@@H](C)O)NC(=O)[C@H](CCN)NC(=O)[C@H](CCN)NC(=O)[C@H](CC(C)C)NC(=O)[C@@H](Cc2ccccc2)NC(=O)[C@H](CCN)NC1=O)[C@@H](C)O [polymyxin B] (HELM PEPTIDE1{[CC[C@H](C)CCCCC(=O)[*:2]].[Dab].T.[Dab].[Dab].[Dab].[dF].L.[Dab].[Dab].T}$PEPTIDE1,PEPTIDE1,5:R3-11:R2$$$V2.0; N-terminus assumed; bridges inferred)	8 µM	4 µM	64 µM	64 µM			17.88 µM	96.0%	31.3%				Minimal Inhibitory Concentration (E. coli (KCTC 1682); KCTC 1682, 16 h): 0.25 µM; Minimal Inhibitory Concentration ([6]; NCCP 16054, 16 h): 0.25 µM; Minimal Inhibitory Concentration ([8]; KCCM 11328, 16 h): 2 µM; Minimal Inhibitory Concentration ([7]; KCCM 40203, 16 h): 0.5 µM
KWKLFKKIEKVGQNIRDGIIKAGPAVAVVGQATQIAK-NH2 [cecropin A]	1 µM	1 µM	2 µM	1 µM	1 µM	2 µM	2.25 µM			2 µM	80.8%	8 µM	
LL-37													peptide concentration nearly neutralizing 10 enzyme units (EU) of LPS [9]: 12.5 µM
RWKFFKKIEKVGQNIRDGIIKAGPAVAVVGQAASITGK-NH2 [T. ni cecropin]	1 µM	1 µM	2 µM	1 µM	1 µM	1 µM	1.63 µM	95%	93.6%	2 µM	82.5%	4 µM	inhibition of biofilm formation (ColREC 1557; ColREC 1557, 2 μM peptide): 75.3%; inhibition of biofilm formation (ColREC 1557; ColREC 1557, 4 μM peptide): over 90%; hemolytic activity ([3]; 100 μM peptide): no hemolytic activity; Kd (TLR4/MD-2 complex): 558 nM
